Reference: EP0422215B1, “ANTIBACTERIAL AND AN[…]” (THE ROCKEFELLER UNIVERSITY, priority 1989, dated 1990)
Where no end group is shown, it is not given here.

Experiments:
Type in all cases: cell-based
B. subtilis Bsll = details: overnight incubation at 30°C; for LETHAL CONCENTRATION Bsll + ME: B. subtilis, plates prepared with medium E; for LETHAL CONCENTRATION Bsll: Bsll = B. subtilis, thin agarose plates
Protocol: (§1) The products of the invention were tested for activity against a variety of test organisms selected to represent a number of different types of pathogens some of them known to be particularly virulent by the inhibition zone assay of Hoffmann et al. (1981) Insect Biochem. 11 537-548. Thin agar or agarose plates (8.5 cm diameter) were prepared with 6 ml of rich medium containing 100 µg/ml of streptomycin and 2 x 10^5 viable cells of a test organism resistant to streptomycin. Wells of […] were punched in the plates and 3 µl of serially diluted samples were placed in the wells. The diameters of the zones of inhibition around the wells were measured after overnight incubation at 30° or 37°C. For each peptide the squares of the zone diameters were plotted against the logarithm of the concentration, and from the slopes and intercepts the lethal concentrations were calculated as described by Hultmark (1983) EMBO J. 2, 571-76 or Hultmark et al. (1982) Eur. J. Biochem. 127 207-217.
(§2) Novel peptides CA(1-8)M(1-18), CA(1-9)M(1-17), CB(1-13)M(1-13), CA(1-17)M(1-9), CA(1-18)M(1-8), M(1-13)CA(1-22) and M(1-13)CA(1-13) were prepared as described above (see Examples 1-6). These novel peptides and CA, CB, and M were tested for activity against a variety of organisms selected to represent a number of different types of pathogens, some of them known to be particularly virulent, by the inhibition zone assay of Hoffmann et al. (1981), Insect Biochem. 11 537-48. As in Examples 1-6, thin agarose plates were prepared with the respective organisms. The diameters of the zones of inhibition were measured after overnight incubation at 30°C. The lethal concentrations were determined as described above (see Examples 1-6; Hultmark et al. articles cited thereat).

E. coli D21 = details: thin agarose plates, overnight incubation at 30°C
Protocol: as §1, §2

P. aeruginosa OT97 = details: thin agarose plates, overnight incubation at 30°C
Protocol: as §1, §2

S. aureus Cowan I = details: thin agarose plates, 30°C, * indicates flat concentration dependence
Protocol: as §1, §2

S. pyogenes = details: thin agarose plates, overnight incubation at 30°C
Protocol: as §1, §2

Sheep Red Cells = assay: lysis of sheep red blood cells (lysis assay or inhibition zone plate assay with SRC); details: for LETHAL CONCENTRATION SRC: SRC = Sheep Red Cells, ? indicates turbid zone (melittin gives clear zone); for concentration lytic to sheep red blood cells: stated in running text
Protocol: These values were obtained by either the lysis assay normally used for melittin or by an adaptation of the antibacterial inhibition zone assay of the above-cited Hultmark et al. articles to plates with sheep red cells (SRC). With respect to the latter, sterile agarose plates contained 6 ml of medium with 1% agarose, 0.9% NaCl and 10% SRC suspended in Alsevers solution. A dilution series of peptide was applied in 3mm wells each loaded with 3 µl of the respective samples. The plates were incubated at 30°C for 24 h, the zones were recorded and LC values calculated as described in the Hultmark et al. articles. Clear zones were recorded after a few hours of incubation and the use of such data gave an LC value of the same order as readings after 24 h. This plate assay is faster and more convenient than the lysis assay normally used for melittin.

| Molecule | LETHAL CONCENTRATION Bsll + ME (B. subtilis Bsll) | LETHAL CONCENTRATION Bsll (B. subtilis Bsll) | LETHAL CONCENTRATION D21 (E. coli D21) | LETHAL CONCENTRATION OT97 (P. aeruginosa OT97) | LETHAL CONCENTRATION Staph (S. aureus Cowan I) | LETHAL CONCENTRATION Strep (S. pyogenes) | LETHAL CONCENTRATION SRC (Sheep Red Cells) | concentration lytic to sheep red blood cells (Sheep Red Cells) | concentration lytic to sheep red blood cells (Sheep Red Cells; listed as CA(1-13) M(1-13)) | fold improvement over natural melittin in lysis of red cells (Sheep Red Cells; compared with melittin) |
| --- | --- | --- | --- | --- | --- | --- | --- | --- | --- | --- |
| CC[C@H](C)[C@H](NC(=O)CN)C(=O)NCC(=O)N[C@@H](C)C(=O)N[C@H](C(=O)N[C@@H](CC(C)C)C(=O)N[C@@H](CCCCN)C(=O)N[C@H](C(=O)N[C@@H](CC(C)C)C(=O)N[C@H](C(=O)N[C@H](C(=O)NCC(=O)N[C@@H](CC(C)C)C(=O)N[C@@H](CCCCN)C(=O)N[C@@H](Cc1c[nH]c2ccccc12)C(=O)N[C@@H](CCCCN)C(=O)N[C@@H](CC(C)C)C(=O)N[C@@H](Cc1ccccc1)C(=O)N[C@@H](CCCCN)C(=O)N[C@@H](CCCCN)C(=O)N[C@H](C(=O)N[C@@H](CCC(=O)O)C(=O)N[C@@H](CCCCN)C(=O)N[C@H](C(=O)NCC(=O)N[C@@H](CCC(N)=O)C(N)=O)C(C)C)[C@@H](C)CC)[C@@H](C)O)[C@@H](C)O)C(C)C)C(C)C [M(1-13)CA(1-13)] | 0.1 µM | 0.3 µM | 1 µM | 5 µM | 5* µM | 1 µM | 80? µM | – | – | – |
| CC[C@H](C)[C@H](NC(=O)CN)C(=O)NCC(=O)N[C@@H](C)C(=O)N[C@H](C(=O)N[C@@H](CC(C)C)C(=O)N[C@@H](CCCCN)C(=O)N[C@H](C(=O)N[C@@H](CC(C)C)C(=O)N[C@H](C(=O)N[C@H](C(=O)NCC(=O)N[C@@H](CC(C)C)C(=O)N[C@@H](CCCCN)C(=O)N[C@@H](Cc1c[nH]c2ccccc12)C(=O)N[C@@H](CCCCN)C(=O)N[C@@H](CC(C)C)C(=O)N[C@@H](Cc1ccccc1)C(=O)N[C@@H](CCCCN)C(=O)N[C@@H](CCCCN)C(=O)N[C@H](C(=O)N[C@@H](CCC(=O)O)C(=O)N[C@@H](CCCCN)C(=O)N[C@H](C(=O)NCC(=O)N[C@@H](CCC(N)=O)C(=O)N[C@@H](CC(N)=O)C(=O)N[C@H](C(=O)N[C@@H](CCCNC(=N)N)C(=O)N[C@@H](CC(=O)O)C(=O)NCC(=O)N[C@H](C(=O)N[C@H](C(=O)N[C@@H](CCCCN)C(=O)N[C@@H](C)C(N)=O)[C@@H](C)CC)[C@@H](C)CC)[C@@H](C)CC)C(C)C)[C@@H](C)CC)[C@@H](C)O)[C@@H](C)O)C(C)C)C(C)C [M(1-13)CA(1-22)] | 0.2 µM | – | 0.7 µM | – | 5* µM | 1 µM | 40? µM | – | – | – |
| CC[C@H](C)[C@H](NC(=O)CNC(=O)[C@H](CCC(N)=O)NC(=O)CNC(=O)[C@@H](NC(=O)[C@H](CCCCN)NC(=O)[C@H](CCC(=O)O)NC(=O)[C@@H](NC(=O)[C@H](CCCCN)NC(=O)[C@H](CCCCN)NC(=O)[C@H](Cc1ccccc1)NC(=O)[C@H](CC(C)C)NC(=O)[C@H](CCCCN)NC(=O)[C@H](Cc1c[nH]c2ccccc12)NC(=O)[C@@H](N)CCCCN)[C@@H](C)CC)C(C)C)C(=O)NCC(=O)N[C@@H](C)C(=O)N[C@H](C(=O)N[C@@H](CC(C)C)C(=O)N[C@@H](CCCCN)C(=O)N[C@H](C(=O)N[C@@H](CC(C)C)C(=O)N[C@H](C(=O)N[C@H](C(=O)NCC(=O)N[C@@H](CC(C)C)C(N)=O)[C@@H](C)O)[C@@H](C)O)C(C)C)C(C)C [CA(1-13)M(1-13)] | – | – | – | – | – | – | – | > 100 µM | greater than 200 µM | – |
| KWKLFKKIEKVGQNIRDGGIGAVLKV-NH2 [CA(1-18)M(1-8)] | 20 µM | 4 µM | 1 µM | 15 µM | >600 µM | 3 µM | >600 µM | – | – | – |
| KWKLFKKIEKVGQNIRDGIGAVLKVL-NH2 [CA(1-17)M(1-9)] | 1 µM | 0.5 µM | 0.5 µM | 5 µM | 4 µM | 0.2 µM | >600 µM | – | – | – |
| CC[C@H](C)[C@H](NC(=O)CNC(=O)[C@H](CCCNC(=N)N)NC(=O)CNC(=O)[C@H](CCSC)NC(=O)[C@H](CCCCN)NC(=O)[C@H](CCC(=O)O)NC(=O)[C@@H](NC(=O)[C@H](CCCCN)NC(=O)[C@H](CCCCN)NC(=O)[C@H](Cc1ccccc1)NC(=O)[C@@H](NC(=O)[C@H](CCCCN)NC(=O)[C@H](Cc1c[nH]c2ccccc12)NC(=O)[C@@H](N)CCCCN)C(C)C)[C@@H](C)CC)C(=O)NCC(=O)N[C@@H](C)C(=O)N[C@H](C(=O)N[C@@H](CC(C)C)C(=O)N[C@@H](CCCCN)C(=O)N[C@H](C(=O)N[C@@H](CC(C)C)C(=O)N[C@H](C(=O)N[C@H](C(=O)NCC(=O)N[C@@H](CC(C)C)C(N)=O)[C@@H](C)O)[C@@H](C)O)C(C)C)C(C)C [CB(1-13)M(1-13)] | 0.4 µM | 0.4 µM | 0.3 µM | 1 µM | 4 µM | 1 µM | >400 µM | – | – | – |
| CC[C@H](C)[C@H](NC(=O)CNC(=O)[C@H](CCC(N)=O)NC(=O)[C@H](CCC(N)=O)NC(=O)[C@H](CCCNC(=N)N)NC(=O)[C@H](CCCCN)NC(=O)[C@H](CCCNC(=N)N)NC(=O)[C@H](CCCCN)NC(=O)[C@@H](NC(=O)[C@H](Cc1c[nH]c2ccccc12)NC(=O)[C@H](CO)NC(=O)[C@@H](NC(=O)[C@@H](N)CC(C)C)[C@@H](C)CC)[C@@H](C)CC)C(=O)NCC(=O)N[C@@H](C)C(=O)N[C@H](C(=O)N[C@@H](CC(C)C)C(=O)N[C@@H](CCCCN)C(=O)N[C@H](C(=O)N[C@@H](CC(C)C)C(=O)N[C@H](C(=O)N[C@H](C(=O)NCC(=O)N[C@@H](CC(C)C)C(N)=O)[C@@H](C)O)[C@@H](C)O)C(C)C)C(C)C [M(16-26)M(1-13)] | – | – | – | – | – | – | – | > 240 µM | – | 40-60 fold |
| CC[C@H](C)[C@H](NC(=O)CNC(=O)[C@@H]1CCCN1C(=O)CNC(=O)[C@H](C)NC(=O)[C@H](CCCCN)NC(=O)[C@@H](NC(=O)[C@@H](NC(=O)CNC(=O)[C@H](CC(=O)O)NC(=O)[C@H](CCCNC(=N)N)NC(=O)[C@@H](NC(=O)[C@H](CC(N)=O)NC(=O)[C@H](CCC(N)=O)NC(=O)CNC(=O)[C@@H](NC(=O)[C@H](CCCCN)NC(=O)[C@H](CCC(=O)O)NC(=O)[C@@H](NC(=O)[C@H](CCCCN)NC(=O)[C@H](CCCCN)NC(=O)[C@H](Cc1ccccc1)NC(=O)[C@H](CC(C)C)NC(=O)[C@H](CCCCN)NC(=O)[C@H](Cc1c[nH]c2ccccc12)NC(=O)[C@@H](N)CCCCN)[C@@H](C)CC)C(C)C)[C@@H](C)CC)[C@@H](C)CC)[C@@H](C)CC)C(=O)NCC(=O)N[C@@H](C)C(=O)N[C@H](C(=O)N[C@@H](CC(C)C)C(=O)N[C@@H](CCCCN)C(=O)N[C@H](C(=O)N[C@@H](CC(C)C)C(=O)N[C@H](C(=O)N[C@H](C(=O)NCC(=O)N[C@@H](CC(C)C)C(N)=O)[C@@H](C)O)[C@@H](C)O)C(C)C)C(C)C [CA(1-24)M(1-13)] | – | – | – | – | – | – | – | > 100 µM | – | – |
